Columns and labels:
[1] = target: TIPARP GST-(TEV) (Homo sapiens (Human), UniProt Q7Z3E1); assay: TR-FRET binding assay, TIPARP; details: for IC50: TR-FRET, Probe 1, 2 hours incubation; for PARP1/TIPARP IC50 Ratio: ratio of PARP1 GST IC50 to TIPARP GST-(TEV) IC50
Procedure, shortened: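 N-terminal GST-TEV-tagged human TIPARP with protein/probe mix in 50 mM Tris-HCl pH 8.0, 5 mM MgCl2, 5 µM ZnCl2, 1 mM DTT, 0.15% BSA, 0.01% Triton X-100, plus 1 nM Tb-anti-GST antibody. Compounds at 30 µM to 0.5 nM final, 3-fold steps. TR-FRET ratio read after 2 h at ambient temperature.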

[2] = tested on: DLD-1 BRCA2 (−/−) cells; assay: CellTiter-Glo DLD-1 BRCA2 (−/−) cell assay for PARP1/2 inhibition; assay type: cell-based; details: 6 days, read-out: DLD-1 BRCA2 (−/−) CTG EC50
Procedure, shortened: (§1)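 DLD-1 parent (500 cells/well) and DLD-1 BRCA2 (−/−) (1200 cells/well) cells in RPMI 1640 with 10% FBS exposed to compounds at 30 μM to 0.5 nM (3-fold dilutions) for 6 days at 37° C. Viability read by CellTiter-Glo luminescence on day 7.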

[3] = tested on: DLD-1 parent cells; assay: CellTiter-Glo DLD-1 parent cell assay; assay type: cell-based; details: 6 days, read-out: DLD-1 CTG EC50
Procedure, shortened: as §1

[4] = target: PARP1 GST (Homo sapiens (Human), UniProt P09874); assay: TR-FRET binding assay, PARP1; details: Probe 2, 2 hours incubation
Procedure, shortened: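 Serially diluted compounds, final 30 μM down to 0.5 nM, incubated 2 h at ambient temperature with GST-tagged protein/probe mix plus 1 nM Tb-anti-GST antibody. Buffer: 50 mM Tris-HCl pH 8.0, 5 mM MgCl2, 5 μM ZnCl2, 1 mM DTT, 0.15% BSA, 0.01% Triton X-100. Binding read as TR-FRET ratio.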

[5] = tested on: NCI-H1373 cells; assay: NCI-H1373 CellTiter-Glo cell assay for TIPARP inhibition; assay type: cell-based, human; details: 6 days, 100 nM 10-Cl-BBQ in medium; read-out: NCI-H1373 CTG EC50
Procedure, shortened: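 NCI-H1373 cells (1000/well) grown in RPMI 1640 with 10% FBS and 100 nM 10-Cl-BBQ, exposed to compounds from 30 μM to 0.5 nM final in 3-fold steps for 6 days at 37° C. Cell number read on day 7 by CellTiter-Glo luminescence.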

Sequence of TIPARP GST-(TEV) (Q7Z3E1 441-657): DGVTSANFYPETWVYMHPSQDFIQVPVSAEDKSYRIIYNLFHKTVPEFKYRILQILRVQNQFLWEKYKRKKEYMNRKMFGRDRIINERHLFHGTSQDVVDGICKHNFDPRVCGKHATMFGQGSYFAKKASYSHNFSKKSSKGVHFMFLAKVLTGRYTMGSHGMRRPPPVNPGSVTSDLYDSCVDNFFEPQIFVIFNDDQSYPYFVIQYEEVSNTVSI
Sequence of PARP1 GST (P09874 whole entry): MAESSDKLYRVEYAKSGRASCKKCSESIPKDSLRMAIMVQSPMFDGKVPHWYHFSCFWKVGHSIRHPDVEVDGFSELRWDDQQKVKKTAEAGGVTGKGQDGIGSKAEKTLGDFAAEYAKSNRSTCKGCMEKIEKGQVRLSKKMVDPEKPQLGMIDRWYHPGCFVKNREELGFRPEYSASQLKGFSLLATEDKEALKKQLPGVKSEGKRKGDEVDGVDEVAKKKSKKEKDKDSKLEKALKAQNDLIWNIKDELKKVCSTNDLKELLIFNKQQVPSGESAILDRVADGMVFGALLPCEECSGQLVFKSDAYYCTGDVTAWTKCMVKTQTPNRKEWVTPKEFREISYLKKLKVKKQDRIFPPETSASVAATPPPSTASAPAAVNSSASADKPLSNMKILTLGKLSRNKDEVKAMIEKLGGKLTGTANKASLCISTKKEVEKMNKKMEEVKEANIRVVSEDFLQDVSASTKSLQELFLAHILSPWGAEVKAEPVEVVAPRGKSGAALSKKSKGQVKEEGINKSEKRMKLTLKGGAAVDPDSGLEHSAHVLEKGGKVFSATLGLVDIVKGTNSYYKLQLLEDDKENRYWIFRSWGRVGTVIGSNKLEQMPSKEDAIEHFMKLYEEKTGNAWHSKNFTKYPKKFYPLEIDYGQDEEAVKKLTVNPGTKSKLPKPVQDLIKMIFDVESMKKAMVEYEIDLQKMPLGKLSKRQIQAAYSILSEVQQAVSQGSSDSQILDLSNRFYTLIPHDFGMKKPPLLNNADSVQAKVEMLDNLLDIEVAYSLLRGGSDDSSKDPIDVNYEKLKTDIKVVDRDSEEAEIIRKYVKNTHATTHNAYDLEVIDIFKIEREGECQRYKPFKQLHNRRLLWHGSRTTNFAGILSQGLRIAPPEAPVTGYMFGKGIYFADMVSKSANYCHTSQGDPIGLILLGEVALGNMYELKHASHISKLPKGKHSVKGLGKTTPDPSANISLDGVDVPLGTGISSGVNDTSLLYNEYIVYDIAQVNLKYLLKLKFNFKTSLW

Structure (SMILES) | IC50 [1] [nM] | PARP1/TIPARP IC50 Ratio [1] | EC50 [2] [nM] | EC50 [3] [nM] | IC50 [4] [nM] | EC50 [5] [nM]
C[C@@H]1CN(c2ncc(C(F)(F)F)cn2)CCN1C(=O)[C@H]1C[C@H](c2c[nH]c(=O)c(C(F)(F)F)c2)C1 [Example 25, 5-[(1R,3r)-3-{(2R)-2-methyl-4-[5-(trifluoromethyl)pyrimidin-2-yl]piperazine-1-carbonyl}cyclobutyl]-3-(trifluoromethyl)pyridin-2(1H)-one] | 2000 | 1.02 | > 30000 | > 30000 | 2030 | 10200
O=c1[nH]cc([C@H]2C[C@H](C(=O)N3CCN(c4ncc(C(F)(F)F)cn4)CC3)C2)cc1C(F)(F)F [Example 26, 3-(trifluoromethyl)-5-[(1r,3r)-3-{4-[5-(trifluoromethyl)pyrimidin-2-yl]piperazine-1-carbonyl}cyclobutyl]pyridin-2(1H)-one] | 1620 | 0.790 | > 30000 | > 30000 | 1280 | 9100
CC(C)(O)c1cnc(N2CCN(C(=O)[C@H]3C[C@@H](Cc4c[nH]c(=O)c(C(F)(F)F)c4)C3)CC2)nc1 [Example 27, 5-{[(1s,3s)-3-{4-[5-(2-hydroxypropan-2-yl)pyrimidin-2-yl]piperazine-1-carbonyl}cyclobutyl]methyl}-3-(trifluoromethyl)pyridin-2(1H)-one] | 2.34 | 98.7 | 894 | > 30000 | 231 | 38.7
CC(C)(O)c1cnc(N2CCN(C(=O)[C@H]3C[C@@H](c4c[nH]c(=O)c(C(F)(F)F)c4)C3)CC2)nc1 [Example 28, 5-[(1s,3s)-3-{4-[5-(2-hydroxypropan-2-yl)pyrimidin-2-yl]piperazine-1-carbonyl}cyclobutyl]-3-(trifluoromethyl)pyridin-2(1H)-one] | 5.69 | 89.1 | 5450 | > 30000 | 507 | 174
O=c1[nH]cc(C[C@H]2C[C@@H](C(=O)N3CCN(c4ncc(C(F)(F)F)cn4)CC3)C2)cc1C(F)(F)F [Example 29, 3-(trifluoromethyl)-5-{[(1s,3s)-3-{4-[5-(trifluoromethyl)pyrimidin-2-yl]piperazine-1-carbonyl}cyclobutyl]methyl}pyridin-2(1H)-one] | 1.75 | 150 | 230 | 5960 | 263 | 18.2

— patent publication US20250333394A1, “Tiparp Inhibitor Compounds” (AbbVie Inc., priority 2024, published 2025)
